Experimental data taken from US8410126B2, “Pyrimidine inhibitors of PKTK2” (Boehringer Ingelheim International GmbH, priority 2009, dated 2013).

target: T1, PTK2 (Homo sapiens, UniProt Q05397); experiment: PTK2 enzyme test Assay 1 (DELFIA, poly-Glu-Tyr substrate, PT60 antibody); assay type: biochemical; details: Assay 1 (values without *); 1 h pre-incubation, 50 μM ATP mix, final DMSO 2%
T1 construct: purchased Invitrogen PV3832
Description: This test uses active PTK2 enzyme (Invitrogen Code PV3832) and poly-Glu-Tyr (4:1, Sigma P-0275) as the kinase substrate. The kinase activity is detected through the phosphorylation of the substrate in a DELFIA™ assay. The phosphorylated substrate is detected with the europium-labelled phosphotyrosine antibody PT60 (Perkin Elmer, No.: AD00400).
In order to determine concentration-activity curves with PTK2-inhibitors the compounds are serially diluted in 10% DMSO/H2O and 10 μL of each dilution are placed in each well of a 96-well microtitre plate (clear plate with a U-shaped base, Greiner No. 650101) (the inhibitors are tested in duplicates) and mixed with 10 μL/well of PTK2 kinase (0.01 μg/well). PTK2 kinase has been correspondingly diluted beforehand with kinase dilution buffer (20 mM TRIS/HCl pH 7.5, 0.1 mM EDTA, 0.1 mM EGTA, 0.286 mM sodium orthovanadate, 10% glycerol with the addition of freshly prepared BSA (fraction V, 1 mg/mL) and DTT (1 mM)). The test compound and the PTK2 kinase are pre-incubated for 1 h at RT and shaken at 500 revolutions per min. The reaction is started by the addition of 10 μL/well poly (Glu,Tyr) substrate (25 μg/well poly (Glu, Tyr), 0.05 μg/well biotinylated poly (Glu,Tyr) dissolved in 250 mM TRIS/HCl pH 7.5, 9 mM DTT)—the final concentration of DMSO is 2%. Then 20 μL of ATP Mix (30 mM TRIS/HCl pH 7.5, 0.02% Brij, 0.2 mM sodium orthovanadate, 10 mM magnesium acetate, 0.1 mM EGTA, 1× phosphatase inhibitor cocktail 1 (Sigma, No.: P2850), 50 μM ATP (Sigma, No.: A3377; 15 mM stock solution)) are added. After 1 h of kinase reaction (the plates are shaken at 500 rpm), the reaction is stopped by the addition of 12 μL/well 100 mM EDTA, pH 8.0 and shaken for a further 5 min at RT (500 rpm). 55 μL of the reaction mixture are transferred into a streptavidin plate (Strepta Well High Bind (transparent, 96-well) made by Roche, No.: 11989685001) and incubated for 1 h at RT (shaking at 500 rpm). Then the microtitre plate is washed three times with 200 μL/well D-PBS (Invitrogen, No. 14190). 100 μL of a solution containing DELFIA Eu-N1 Anti-Phosphotyrosine PT60 antibody (Perkin Elmer, No.: AD0040, diluted 1:2000 in DELFIA test buffer (Perkin Elmer, No.: 1244-111)) is then added and the mixture is incubated for 1 h at RT (shaking at 500 rpm). Then the plate is washed three times with 200 μL/well DELFIA washing buffer (Perkin Elmer, No.: 1244-114), 200 μL/well strengthening solution (Perkin Elmer, No.: 1244-105) are added and the mixture is incubated for 10 min at RT (shaking at 300 rpm).
The time-delayed europium fluorescence is then measured in a microtitre plate reader (VICTOR^3, Perkin Elmer). […] Wells that contain test buffer instead of enzyme are used as a control of the background kinase activity.
The IC50 values are determined from analyses of the concentration activity by iterative calculation with the aid of a sigmoid curve analysis algorithm (FIFTY, based on GraphPAD Prism Version 3.03) with a variable Hill coefficient.

T1 sequence (Q05397 whole entry): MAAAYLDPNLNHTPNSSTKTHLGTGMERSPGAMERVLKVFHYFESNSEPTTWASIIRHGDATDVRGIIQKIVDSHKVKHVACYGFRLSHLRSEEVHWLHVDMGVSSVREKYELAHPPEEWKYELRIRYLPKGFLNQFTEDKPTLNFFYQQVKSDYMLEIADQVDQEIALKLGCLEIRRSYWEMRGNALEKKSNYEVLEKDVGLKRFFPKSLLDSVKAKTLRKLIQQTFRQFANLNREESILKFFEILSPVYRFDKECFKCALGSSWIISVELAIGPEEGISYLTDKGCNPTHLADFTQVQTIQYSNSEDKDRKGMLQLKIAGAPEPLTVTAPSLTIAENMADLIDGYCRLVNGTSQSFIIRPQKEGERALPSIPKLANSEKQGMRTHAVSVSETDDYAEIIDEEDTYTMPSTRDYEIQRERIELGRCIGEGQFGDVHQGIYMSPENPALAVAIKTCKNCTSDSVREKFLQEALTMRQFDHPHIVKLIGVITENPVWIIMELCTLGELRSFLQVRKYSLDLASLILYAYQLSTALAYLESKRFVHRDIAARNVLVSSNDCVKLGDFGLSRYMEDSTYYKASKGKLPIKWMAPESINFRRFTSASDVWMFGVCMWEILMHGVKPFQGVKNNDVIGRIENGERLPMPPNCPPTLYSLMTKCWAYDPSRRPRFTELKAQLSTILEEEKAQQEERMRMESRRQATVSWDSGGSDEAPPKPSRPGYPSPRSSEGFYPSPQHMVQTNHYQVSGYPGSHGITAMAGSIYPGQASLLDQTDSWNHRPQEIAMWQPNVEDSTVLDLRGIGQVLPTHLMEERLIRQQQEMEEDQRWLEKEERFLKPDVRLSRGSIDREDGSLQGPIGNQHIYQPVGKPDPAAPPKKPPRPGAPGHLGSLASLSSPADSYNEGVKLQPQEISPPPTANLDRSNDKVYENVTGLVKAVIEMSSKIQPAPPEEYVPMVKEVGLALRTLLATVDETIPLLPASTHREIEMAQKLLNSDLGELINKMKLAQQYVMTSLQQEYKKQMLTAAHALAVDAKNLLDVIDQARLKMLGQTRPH

**Q.** With `COc1cc(N2CCN(C)CC2)ccc1Nc1ncc(C(F)(F)F)c(N[C@@H]2Cc3ccccc3[C@H]2N(C)S(C)(=O)=O)n1` [Example I-39, N-((1R,2R)-2-{2-[2-methoxy-4-(4-methyl-piperazin-1-yl)-phenylamino]-5-trifluoromethyl-pyrimidin-4-ylamino}-indan-1-yl)-N-methyl-methanesulphonamide] as the molecule, how does the IC50 read?
**A.** 3 nM

**Q.** How did the IC50 turn out when `COc1cc(C(=O)NCCN(C)C)c(C)cc1Nc1ncc(Cl)c(N[C@@H]2Cc3ccccc3[C@H]2N(C)S(C)(=O)=O)n1` [Example I-97] was run?
**A.** 2 nM

**Q.** Which IC50 does the source give for `COc1cc(C(=O)NC2CCOCC2)c(F)cc1Nc1ncc(C(F)(F)F)c(N[C@@H]2Cc3ccccc3[C@H]2N(C)S(C)(=O)=O)n1` [Example I-50] here?
**A.** 8 nM

**Q.** Which IC50 does the source give for `CNC(=O)c1ccc(Nc2ncc(C(F)(F)F)c(N[C@@H]3Cc4ccccc4[C@H]3NC(C)=O)n2)c(OC)c1` [Example I-18] here?
**A.** 2 nM

**Q.** How did the IC50 turn out when `COc1cc(C(=O)NC2CCC(N3CCN(CC4CC4)CC3)CC2)ccc1Nc1ncc(C(F)(F)F)c(N[C@@H]2Cc3ccccc3[C@H]2N(C)S(C)(=O)=O)n1` (stereo partly shown) [Example I-7] was run?
**A.** 1 nM

**Q.** With `COCCN1CCC(NC(=O)c2ccc(Nc3ncc(C(F)(F)F)c(N[C@@H]4Cc5ccccc5[C@H]4NC(C)=O)n3)c(OC)c2)CC1` [Example I-13] as the molecule, how does the IC50 read?
**A.** 3 nM

**Q.** `COc1cc(C(=O)NC2CCN(C)CC2)ccc1Nc1ncc(C(F)(F)F)c(N[C@@H]2Cc3ccccc3[C@H]2NS(C)(=O)=O)n1` [Example I-8] was tested. Which IC50 did it give?
**A.** 2 nM

**Q.** Which IC50 does the source give for `CNCc1ccc(Nc2ncc(C(F)(F)F)c(N[C@@H]3Cc4ccccc4[C@H]3N(C)S(C)(=O)=O)n2)c(OC)c1` [Example I-71, N-{(1R,2R)-2-[2-(2-methoxy-4-methylaminomethyl-phenylamino)-5-trifluoromethyl-pyrimidin-4-ylamino]-indan-1-yl}-N-methyl-methanesulphonamide] here?
**A.** 1 nM

**Q.** With `COc1cc(C(=O)NC2CCN(C)CC2)c(Cl)cc1Nc1ncc(C(F)(F)F)c(N[C@@H]2Cc3ccccc3[C@H]2N(C)S(C)(=O)=O)n1` [Example I-60, 2-chloro-4-{4-[(1R,2R)-1-(methanesulphonyl-methyl-amino)-indan-2-ylamino]-5-trifluoromethyl-pyrimidin-2-ylamino}-5-methoxy-N-(1-methyl-piperidin-4-yl)-benzamide] as the molecule, how does the IC50 read?
**A.** 1 nM

**Q.** `COc1cc(C(=O)NC2CCCN(C)C2)c(F)cc1Nc1ncc(C(F)(F)F)c(N[C@@H]2Cc3ccccc3[C@H]2N(C)S(C)(=O)=O)n1` (stereo partly shown) [Example I-47] was tested. Which IC50 did it give?
**A.** 3 nM

**Q.** How did the IC50 turn out when `COc1cc(C(=O)NC2CCC(N3CCN(CC4CC4)CC3)CC2)ccc1Nc1ncc(C(F)(F)F)c(N[C@@H]2Cc3ccccc3[C@H]2NC(C)=O)n1` (stereo partly shown) [Example I-12] was run?
**A.** 4 nM

**Q.** How did the IC50 turn out when `COc1cc(Nc2ncc(C(F)(F)F)c(N[C@@H]3Cc4ccccc4[C@H]3N(C)S(C)(=O)=O)n2)ccc1C(=O)NC1CCN(C)CC1` [Example I-64] was run?
**A.** 0.76 nM

**Q.** For `CNC(=O)c1cc(OC)c(Nc2ncc(C(F)(F)F)c(N[C@@H]3Cc4ccccc4[C@H]3N(C)S(C)(=O)=O)n2)cc1F` [Example I-49], which IC50 is on record?
**A.** 6 nM

**Q.** For `COCCNC(=O)c1ccc(Nc2ncc(C(F)(F)F)c(N[C@@H]3Cc4ccccc4[C@H]3NC(C)=O)n2)c(OC)c1` [Example I-16], which IC50 is on record?
**A.** 2 nM

**Q.** `COc1cc(NC(C)=O)ccc1Nc1ncc(C(F)(F)F)c(N[C@@H]2Cc3ccccc3[C@H]2N(C)S(C)(=O)=O)n1` [Example I-90] was tested. Which IC50 did it give?
**A.** 3 nM

**Q.** How did the IC50 turn out when `COCCN1CCN(c2ccc(Nc3ncc(C(F)(F)F)c(N[C@@H]4Cc5ccccc5[C@H]4N(C)S(C)(=O)=O)n3)c(OC)c2)CC1` [Example I-84] was run?
**A.** 1 nM

**Q.** `COc1cc(N2CCN(C)CC2)ccc1Nc1ncc(C(F)(F)F)c(N[C@@H]2Cc3ccccc3[C@H]2NC(C)=O)n1` [Example I-26] was tested. Which IC50 did it give?
**A.** 2 nM

**Q.** Which IC50 does the source give for `COc1cc(C(=O)NCCN(C)C)c(Cl)cc1Nc1ncc(C(F)(F)F)c(N[C@@H]2Cc3ccccc3[C@H]2N(C)S(C)(=O)=O)n1` [Example I-58] here?
**A.** 4 nM

**Q.** For `COc1cc(C(=O)NCCN(C)C)c(C)cc1Nc1ncc(C(F)(F)F)c(N[C@@H]2Cc3ccccc3[C@H]2N(C)S(C)(=O)=O)n1` [Example I-54], which IC50 is on record?
**A.** 0.84 nM

**Q.** Which IC50 does the source give for `COc1cc(N2CCN(C3COC3)CC2)ccc1Nc1ncc(C(F)(F)F)c(N[C@@H]2Cc3ccccc3[C@H]2N(C)S(C)(=O)=O)n1` [Example I-57] here?
**A.** 3 nM

**Q.** `COc1cc(CN2CCOCC2)ccc1Nc1ncc(C(F)(F)F)c(N[C@@H]2Cc3ccccc3[C@H]2NC(C)=O)n1` [Example I-38] was tested. Which IC50 did it give?
**A.** 2 nM

**Q.** `COc1cc(C(=O)NC2CCN(C)CC2)c(C)cc1Nc1ncc(C(F)(F)F)c(N[C@@H]2Cc3ccccc3[C@H]2N(C)S(C)(=O)=O)n1` [Example I-53] was tested. Which IC50 did it give?
**A.** 1 nM

**Q.** Which IC50 does the source give for `COc1cc(C(=O)NC2CCN(C)CC2)ccc1Nc1ncc(Br)c(N[C@@H]2Cc3ccccc3[C@H]2N(C)S(C)(=O)=O)n1` [Example I-98, 4-{5-bromo-4-[(1R,2R)-1-(methanesulphonyl-methyl-amino)-indan-2-ylamino]-pyrimidin-2-ylamino}-3-methoxy-N-(1-methyl-piperidin-4-yl)-benzamide] here?
**A.** 1 nM

**Q.** With `COc1cc(C(=O)NC2CCN(C)CC2)c(F)cc1Nc1ncc(C(F)(F)F)c(N[C@@H]2Cc3ccccc3[C@H]2N(C)S(C)(=O)=O)n1` [Example I-46, 2-fluoro-4-{4-[(1R,2R)-1-(methanesulphonyl-methyl-amino)-indan-2-ylamino]-5-trifluoromethyl-pyrimidin-2-ylamino}-5-methoxy-N-(1-methyl-piperidin-4-yl)-benzamide] as the molecule, how does the IC50 read?
**A.** 2 nM

**Q.** `COc1cc(C(=O)NCCN(C)C)ccc1Nc1ncc(C(F)(F)F)c(N[C@@H]2Cc3ccccc3[C@H]2N(C)S(C)(=O)=O)n1` [Example I-52] was tested. Which IC50 did it give?
**A.** 1 nM

**Q.** For `CCN1CCC(NC(=O)c2ccc(Nc3ncc(C(F)(F)F)c(N[C@@H]4Cc5ccccc5[C@H]4NC(C)=O)n3)c(OC)c2)CC1` [Example I-11], which IC50 is on record?
**A.** 2 nM

**Q.** `CNC(=O)c1ccc(Nc2ncc(C(F)(F)F)c(N[C@@H]3c4ccccc4C[C@H]3NS(C)(=O)=O)n2)c(OC)c1` [Example I-95] was tested. Which IC50 did it give?
**A.** 6 nM

**Q.** With `COc1cc(C(=O)NC2CCCN(C)C2)ccc1Nc1ncc(C(F)(F)F)c(N[C@@H]2Cc3ccccc3[C@H]2N(C)S(C)(=O)=O)n1` (stereo partly shown) [Example I-6] as the molecule, how does the IC50 read?
**A.** 0.96 nM

**Q.** `COCCN1CCC(NC(=O)c2ccc(Nc3ncc(C(F)(F)F)c(N[C@@H]4Cc5ccccc5[C@H]4N(C)S(C)(=O)=O)n3)c(OC)c2)CC1` [Example I-65] was tested. Which IC50 did it give?
**A.** 1 nM

**Q.** `CNCc1ccc(Nc2ncc(C(F)(F)F)c(N[C@@H]3Cc4ccccc4[C@H]3NS(C)(=O)=O)n2)c(OC)c1` [Example I-9] was tested. Which IC50 did it give?
**A.** 2 nM

**Q.** How did the IC50 turn out when `COc1cc(C(=O)NCCN(C)C)ccc1Nc1ncc(C(F)(F)F)c(N[C@@H]2Cc3ccccc3[C@H]2NS(C)(=O)=O)n1` [Example I-3, N-(2-dimethylamino-ethyl)-4-[4-((1R,2R)-1-methanesulphonylamino-indan-2-ylamino)-5-trifluoromethyl-pyrimidin-2-ylamino]-3-methoxy-benzamide] was run?
**A.** 2 nM

**Q.** `COc1cc(C(=O)NOCCN(C)C)ccc1Nc1ncc(C(F)(F)F)c(N[C@@H]2Cc3ccccc3[C@H]2N(C)S(C)(=O)=O)n1` [Example I-59] was tested. Which IC50 did it give?
**A.** 0.83 nM

**Q.** `COc1cc(C(=O)NC2CCN(C)CC2)ccc1Nc1ncc(C(F)(F)F)c(N[C@@H]2Cc3ccccc3[C@H]2NC(C)=O)n1` [Example I-1] was tested. Which IC50 did it give?
**A.** 2 nM

**Q.** How did the IC50 turn out when `COc1cc(C(=O)NCCN(C)C)ccc1Nc1ncc(C(F)(F)F)c(N[C@@H]2Cc3ccccc3[C@H]2NC(C)=O)n1` [Example I-20] was run?
**A.** 1 nM

**Q.** For `COc1cc(C(=O)NC2CCN(C)CC2)c(C)cc1Nc1ncc(Cl)c(N[C@@H]2Cc3ccccc3[C@H]2N(C)S(C)(=O)=O)n1` [Example I-68], which IC50 is on record?
**A.** 1 nM

**Q.** For `COc1cc(N2CCNCC2)ccc1Nc1ncc(C(F)(F)F)c(N[C@@H]2Cc3ccccc3[C@H]2N(C)S(C)(=O)=O)n1` [Example I-70, N-{(1R,2R)-2-[2-(2-methoxy-4-piperazin-1-yl-phenylamino)-5-trifluoromethyl-pyrimidin-4-ylamino]-indan-1-yl}-N-methyl-methanesulphonamide], which IC50 is on record?
**A.** 0.98 nM

**Q.** For `COc1cc(C(=O)NC2CCC(N3CCOCC3)CC2)ccc1Nc1ncc(C(F)(F)F)c(N[C@@H]2Cc3ccccc3[C@H]2NC(C)=O)n1` (stereo partly shown) [Example I-19], which IC50 is on record?
**A.** 3 nM
